Source: ChEMBL document CHEMBL2331180, “Synthetic glycolipids for glioma growth inhibition developed from neurostatin and NF115 compound” (2013)
Activity calls are given as the source filed them. The calls are words filed in the database; no cut-off is given here.

Legend:
C6 = assay: Antitumor activity against rat C6 cells transplanted to rat assessed as reduction in tumor growth at 8 mg/kg, intra-tumor treated after 1 week of tumor injection measured up to 15 days relative to untreated control; assay type: functional, organism-based; parameters: dose 8 mg/kg
[1] = Antiproliferative activity against human […] cells assessed as inhibitory activity measured after 36 hrs by [3H]thymidine incorporation assay; assay type: functional; details: read-out: ID50 (the source's name)
[2] = Antiproliferative activity against human […] cells assessed as Human Bcl-x beta gene repression at IC50 concentration after 24 hrs by microarray analysis relative to control; assay type: functional
[3] = Antiproliferative activity against human […] cells assessed as Solute carrier family 4, anion exchanger, member 2 (erythrocyte membrane protein band 3-like 1) gene repression at IC50 concentration after 24 hrs by microarray analysis relative to control; assay type: functional
[4] = Antiproliferative activity against human […] cells assessed as Human epsilon 14-3-3 protein gene repression at IC50 concentration after 24 hrs by microarray analysis relative to control; assay type: functional
[5] = Antiproliferative activity against human […] cells assessed as Rho GDP dissociation inhibitor (GDI) alpha gene repression at IC50 concentration after 24 hrs by microarray analysis relative to control; assay type: functional
[6] = Antiproliferative activity against human […] cells assessed as Tumor protein p53 gene repression at IC50 concentration after 24 hrs by microarray analysis relative to control; assay type: functional

Row | SMILES | Activity (C6) | IC50 [1] | fold change (FC) [2] | fold change (FC) [3] | fold change (FC) [4] | fold change (FC) [5] | fold change (FC) [6]
1 | CCCCCCCCCCCCCCCCO[C@H]1O[C@H](COCC(CO)(CO)COS(=O)(=O)O)[C@@H](O)[C@H](O)[C@H]1NC(=O)CCCC | Active | 3.2 µM | – | – | – | – | –
2 | CCCCCCCCO[C@H]1O[C@H](COCC(CO)(CO)CO)[C@@H](O)[C@H](O)[C@H]1NC(C)=O | – | 180 µM | 0.3 | 0.7 | 0.5 | 0.3 | 0.5
3 | CCCCCCCCCCCCCCCCO[C@H]1O[C@H](COCC(O)CO)[C@@H](O)[C@H](O)[C@H]1NC(=O)CCCC (some centres not stated) | inactive | 4.6 µM | – | – | – | – | –
4 | CCCCCCCCCCCCCCCCO[C@H]1O[C@H](CO)[C@@H](O)[C@H](O)[C@H]1NC(C)=O | inactive | 13 µM | – | – | – | – | –
